Experimental data from US5972907A, “Synthetic core 2-like branched structures containing GalNAc-lewis^x and Neu5Acα2-3Galβ1-3GalNAc sequences as novel ligands for selectins” (Health Research, Inc., priority 1997, dated 1999).

What was measured:
[1] = target: T1, L-Selectin (Homo sapiens, UniProt P14151); assay: ELISA inhibition of recombinant L-selectin binding to immobilized SLe^x; settings: mean of 3 determinations, read-out: IC50 Values Against SLe^x, L-Selectin
T1 sequence (P14151 39-372): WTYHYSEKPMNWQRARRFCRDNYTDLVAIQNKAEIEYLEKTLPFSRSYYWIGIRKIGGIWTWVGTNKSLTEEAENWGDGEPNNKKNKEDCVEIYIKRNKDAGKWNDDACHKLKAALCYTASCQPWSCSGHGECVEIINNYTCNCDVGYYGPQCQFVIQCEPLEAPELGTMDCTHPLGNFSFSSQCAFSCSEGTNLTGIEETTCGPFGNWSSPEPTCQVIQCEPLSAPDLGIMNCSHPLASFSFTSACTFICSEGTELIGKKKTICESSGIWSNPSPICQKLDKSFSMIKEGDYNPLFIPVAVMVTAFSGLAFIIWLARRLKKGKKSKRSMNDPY
Experimental: (§1) Relative Inhibitory Properties of Branched Chains Including Neu5Ac and/or GalNAcLe^x Against Recombinant Selectins Binding to Immobilized SLe^x
(§2) ELISA inhibition studies were done as previously reported conditions. Ic50 values against immobilized SLe^x are the mean values of 3 determinations and were calculated according to published methodology.

[2] = target: T2, P-Selectin (Homo sapiens, UniProt P16109); assay: Other studies of binding (unspecified; P-selectin context); settings: no details given
T2 sequence (P16109 42-830): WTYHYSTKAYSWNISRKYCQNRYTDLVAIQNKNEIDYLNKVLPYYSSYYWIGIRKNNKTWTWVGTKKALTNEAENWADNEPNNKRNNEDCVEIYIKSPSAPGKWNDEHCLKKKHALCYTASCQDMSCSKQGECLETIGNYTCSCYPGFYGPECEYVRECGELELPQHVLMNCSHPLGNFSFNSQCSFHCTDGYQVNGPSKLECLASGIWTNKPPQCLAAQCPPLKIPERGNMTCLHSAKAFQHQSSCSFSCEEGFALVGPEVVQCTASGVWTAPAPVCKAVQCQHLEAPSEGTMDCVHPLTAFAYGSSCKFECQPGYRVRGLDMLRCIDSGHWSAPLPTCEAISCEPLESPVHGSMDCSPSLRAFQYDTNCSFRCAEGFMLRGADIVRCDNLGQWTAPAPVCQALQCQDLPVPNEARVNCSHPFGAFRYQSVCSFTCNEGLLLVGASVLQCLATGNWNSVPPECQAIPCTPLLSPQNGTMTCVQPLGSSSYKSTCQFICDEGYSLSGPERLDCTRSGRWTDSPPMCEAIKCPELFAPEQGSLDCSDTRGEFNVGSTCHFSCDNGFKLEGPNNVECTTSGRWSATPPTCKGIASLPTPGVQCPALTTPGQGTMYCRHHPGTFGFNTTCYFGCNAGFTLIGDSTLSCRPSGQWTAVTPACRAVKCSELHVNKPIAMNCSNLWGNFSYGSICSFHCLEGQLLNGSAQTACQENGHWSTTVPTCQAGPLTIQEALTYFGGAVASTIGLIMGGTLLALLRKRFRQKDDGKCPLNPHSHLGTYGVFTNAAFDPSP

[3] = target: T2, P-Selectin; assay: ELISA inhibition of recombinant P-selectin binding to immobilized SLe^x; settings: for IC50: recombinant selectin, immobilized SLe^x, ELISA, mean of 3 determinations, read-out: IC50 Values Against SLe^x, P-Selectin
Experimental: as §1, §2

[4] = target: T3, E-Selectin (Homo sapiens, UniProt P16581); assay: ELISA inhibition of recombinant E-selectin binding to immobilized SLe^x; settings: mean of 3 determinations, read-out: IC50 Values Against SLe^x, E-Selectin
T3 sequence (P16581 22-610): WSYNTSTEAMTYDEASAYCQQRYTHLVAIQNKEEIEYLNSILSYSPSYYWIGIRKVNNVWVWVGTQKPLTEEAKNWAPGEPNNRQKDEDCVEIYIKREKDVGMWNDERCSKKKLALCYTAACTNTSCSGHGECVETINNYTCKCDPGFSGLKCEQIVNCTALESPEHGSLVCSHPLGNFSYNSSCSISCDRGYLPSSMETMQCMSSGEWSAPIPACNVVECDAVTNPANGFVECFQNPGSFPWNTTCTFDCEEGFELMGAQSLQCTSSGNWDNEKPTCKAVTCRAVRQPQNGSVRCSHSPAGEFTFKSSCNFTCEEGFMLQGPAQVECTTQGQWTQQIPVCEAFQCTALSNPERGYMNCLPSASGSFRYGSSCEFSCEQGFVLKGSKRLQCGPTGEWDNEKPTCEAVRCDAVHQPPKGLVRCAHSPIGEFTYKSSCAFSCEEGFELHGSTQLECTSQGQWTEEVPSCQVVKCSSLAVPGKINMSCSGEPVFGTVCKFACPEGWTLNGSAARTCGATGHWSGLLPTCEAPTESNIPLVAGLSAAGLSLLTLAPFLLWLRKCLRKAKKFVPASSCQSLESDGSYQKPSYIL
Experimental: as §1, §2

[5] = target: T1, L-Selectin; settings: cited from earlier work; for affinity for L-selectin: recent study / inhibition studies of Scudder et al.
[6] = target: T3, E-Selectin; settings: isolated from human cell produced Protein C; cited from earlier work

IC50 [1] | IC50 [3] | IC50 [4] | Compound | further results
500 µM | > 500 µM | > 500 µM | CO[C@H]1O[C@H](CO[C@@H]2O[C@H](CO)[C@@H](O[C@@H]3O[C@H](CO)[C@H](O)[C@H](O)[C@H]3NC(C)=O)[C@H](O[C@@H]3O[C@@H](C)[C@@H](O)[C@@H](O)[C@@H]3O)[C@H]2NC(C)=O)[C@H](O)[C@H](O[C@@H]2O[C@H](CO)[C@H](O)[C@H](OS(=O)(=O)O)[C@H]2O)[C@H]1NC(C)=O [Compound 19] | binding in other studies [2]: even greater binding; binding ability relative to sialyl Lewis^x for P-selectin ([3]; compared with sialyl Lewis^x): about six
– | – | – | NeuAcα2→3Galβ1→4(Fucα1→3)SE-3GlcNAcβ1→3Gal | affinity for L-selectin [5]: lacked a high affinity
600 µM | – | – | sialyl Lewis^x [reference compound] | –
300 µM | 400 µM | > 500 µM | CO[C@H]1O[C@H](CO[C@@H]2O[C@H](CO)[C@@H](O[C@@H]3O[C@H](CO)[C@H](O)[C@H](O)[C@H]3NC(C)=O)[C@H](O[C@@H]3O[C@@H](C)[C@@H](O)[C@@H](O)[C@@H]3O)[C@H]2NC(C)=O)[C@H](O)[C@H](O[C@@H]2O[C@H](CO)[C@H](O)[C@H](O)[C@H]2O)[C@H]1NC(C)=O [Compound 14, Methyl O-(2-acetamido-2-deoxy-β-D-galactopyranosyl)-(1→4)-O-[(α-L-fucopyranosyl)-(1→3)-O]-(2-acetamido-2-deoxy-β-D-glucopyranosyl)-(1→6)-O-[(β-D-galactopyranosyl)-(1→3)-O]-2-acetamido-2-deoxy-α-D-galactopyranoside] | –
– | – | – | GalNAcβ1→4(Fucα1→3)GlcNAcβ1→Manα1→3/6Manβ1→4GlcNAcβ1→4GlcNAc | inhibition of E-selectin [6]: potent inhibitor
300 µM | 400 µM | > 500 µM | CO[C@@H]1O[C@H](CO)[C@@H](O[C@@H]2O[C@H](CO)[C@H](O)[C@H](O)[C@H]2NC(C)=O)[C@H](O[C@@H]2O[C@@H](C)[C@@H](O)[C@@H](O)[C@@H]2O)[C@H]1NC(C)=O [Compound 8b] | –
– | – | – | COC1O[C@H](CO)[C@@H](O[C@@H]2O[C@H](COS(=O)(=O)O)[C@H](O)[C@H](O[C@]3(C(=O)O)C[C@H](O)[C@@H](NC(C)=O)[C@H]([C@H](O)[C@H](O)CO)O3)[C@H]2O)[C@H](O[C@@H]2O[C@@H](C)[C@@H](O)[C@@H](O)[C@@H]2O)[C@H]1NC(C)=O (stereo partly shown) [NeuAcα2→3SE-6 Galβ1→4(Fucα1→3)GlcNAcOMe] | affinity for L-selectin [5]: lacked a high affinity; ligand quality for L-selectin ([5]; recent study): not a superior ligand
105 µM | 85 µM | > 500 µM | CO[C@H]1O[C@H](CO[C@@H]2O[C@H](CO)[C@@H](O[C@@H]3O[C@H](CO)[C@H](O)[C@H](O)[C@H]3NC(C)=O)[C@H](O[C@@H]3O[C@@H](C)[C@@H](O)[C@@H](O)[C@@H]3O)[C@H]2NC(C)=O)[C@H](O)[C@H](O[C@@H]2O[C@H](CO)[C@H](O)[C@H](O[C@]3(C(=O)O)C[C@H](O)[C@@H](NC(C)=O)[C@H]([C@H](O)[C@H](O)CO)O3)[C@H]2O)[C@H]1NC(C)=O [Compound 16] | –
